From US6638973B2, “Taxane formulations” (FSU Research Foundation, Inc., priority 2000, dated 2003)

test system: HCT116 cells; experiment: In vitro cytotoxicity measured by the cell colony formation assay; assay type: cell-based; conditions: HCT116 cells, 72 h incubation with drug, colonies counted after 7 days; ID50 = drug concentration producing 50% inhibition of colony formation; read-out: IN VITRO ID 50 (nm) HCT116
Experimental: (§1) Four hundred cells (HCT116) were plated in 60 mm Petri dishes containing 2.7 mL of medium (modified McCoy's 5a medium containing 10% fetal bovine serum and 100 units/mL penicillin and 100 µg/mL streptomycin). The cells were incubated in a CO2 incubator at 37° C. for 5 h for attachment to the bottom of Petri dishes. The compounds identified in Example 2 were made up fresh in medium at ten times the final concentration, and then 0.3 mL of this stock solution was added to the 2.7 mL of medium in the dish. The cells were then incubated with drugs for 72 h at 37° C. At the end of incubation the drug-containing media were decanted, the dishes were rinsed with 4 mL of Hank's Balance Salt Solution (HBSS), 5 mL of fresh medium was added, and the dishes were returned to the incubator for colony formation. The cell colonies were counted using a colony counter after incubation for 7 days.
as §1, with “Example 7” for “Example 2”
as §1, with “Example 22” for “Example 2”
as §1, with “Example 27” for “Example 2”
Four hundred cells (HCT116) were plated in 60 mm Petri dishes containing 2.7 mL of medium (modified McCoy's 5a medium containing 10% fetal bovine serum and 100 units/mL penicillin and 100 µg/mL streptomycin). The cells were incubated in a CO2 incubator at 37° C. for 5 h for attachment to the bottom of Petri dishes. […]

**Q.** Which IC50 does the source give for `CCOC(=O)OC1C(=O)C2(C)C(O)CC3OCC3(OC(C)=O)C2C(OC(=O)c2ccccc2)C2(O)CC(OC(=O)C(O)C(NC(=O)OC(C)(C)C)c3cccs3)C(C)=C1C2(C)C` (stereo not drawn) [Compound 1755] here?
**A.** The IC50 was less than 1 nM.

**Q.** How did the IC50 turn out when `CCOC(=O)O[C@H]1C(=O)[C@@]2(C)C([C@H](OC(=O)c3ccccc3)[C@]3(O)C[C@H](OC(=O)[C@H](O)[C@@H](NC(=O)OC(C)(C)C)C(C)C)C(C)=C1C3(C)C)[C@]1(OC(C)=O)CO[C@@H]1C[C@@H]2O` (stereo partly drawn) [Compound 1767] was run?
**A.** The IC50 was less than 10 nM.

**Q.** With `CCOC(=O)O[C@H]1C(=O)[C@@]2(C)C([C@H](OC(=O)c3ccccc3)[C@]3(O)C[C@H](OC(=O)[C@H](O)[C@@H](NC(=O)OC(C)(C)C)c4ccccc4)C(C)=C1C3(C)C)[C@]1(OC(C)=O)CO[C@@H]1C[C@@H]2O` (stereo partly drawn) [Compound 1771] as the compound, how does the IC50 read?
**A.** Its IC50 is less than 10 nM.

**Q.** How did the IC50 turn out when `CCOC(=O)O[C@H]1C(=O)[C@@]2(C)C([C@H](OC(=O)c3ccccc3)[C@]3(O)C[C@H](OC(=O)[C@H](O)[C@H](C=C(C)C)NC(=O)OC(C)(C)C)C(C)=C1C3(C)C)[C@]1(OC(C)=O)CO[C@@H]1C[C@@H]2O` (stereo partly drawn) [Compound 1781] was run?
**A.** Its IC50 is less than 1 nM.

**Q.** For `CCOC(=O)O[C@H]1C(=O)[C@@]2(C)C([C@H](OC(=O)c3ccccc3)[C@]3(O)C[C@H](OC(=O)[C@H](O)[C@H](C=C(C)C)NC(=O)OC(C)(C)C)C(C)=C1C3(C)C)[C@]1(OC(C)=O)CO[C@@H]1C[C@@H]2O` (stereo partly drawn) [Compound 1788], which IC50 is on record?
**A.** The IC50 was less than 1 nM.

**Q.** For `CCOC(=O)O[C@H]1C(=O)[C@@]2(C)C([C@H](OC(=O)c3ccccc3)[C@]3(O)C[C@H](OC(=O)[C@H](O)[C@@H](NC(=O)OC(C)(C)C)c4ccccn4)C(C)=C1C3(C)C)[C@]1(OC(C)=O)CO[C@@H]1C[C@@H]2O` (stereo partly drawn) [Compound 1799], which IC50 is on record?
**A.** Its IC50 is less than 1 nM.

**Q.** For `CCOC(=O)O[C@H]1C(=O)[C@@]2(C)C([C@H](OC(=O)c3ccccc3)[C@]3(O)C[C@H](OC(=O)[C@H](O)[C@@H](NC(=O)OC(C)(C)C)c4cccnc4)C(C)=C1C3(C)C)[C@]1(OC(C)=O)CO[C@@H]1C[C@@H]2O` (stereo partly drawn) [Compound 1808], which IC50 is on record?
**A.** The IC50 was less than 10 nM.

**Q.** `CCOC(=O)O[C@H]1C(=O)[C@@]2(C)C([C@H](OC(=O)c3ccccc3)[C@]3(O)C[C@H](OC(=O)[C@H](O)[C@@H](NC(=O)OC(C)(C)C)c4ccncc4)C(C)=C1C3(C)C)[C@]1(OC(C)=O)CO[C@@H]1C[C@@H]2O` (stereo partly drawn) [Compound 1811] was tested. Which IC50 did it give?
**A.** The IC50 was less than 1 nM.

**Q.** How did the IC50 turn out when `CCOC(=O)O[C@H]1C(=O)[C@@]2(C)C([C@H](OC(=O)c3ccccc3)[C@]3(O)C[C@H](OC(=O)[C@H](O)[C@@H](NC(=O)OC(C)(C)C)c4ccco4)C(C)=C1C3(C)C)[C@]1(OC(C)=O)CO[C@@H]1C[C@@H]2O` (stereo partly drawn) [Compound 1822] was run?
**A.** Its IC50 is less than 1 nM.

**Q.** Which IC50 does the source give for `CCOC(=O)O[C@H]1C(=O)[C@@]2(C)C([C@H](OC(=O)c3ccccc3)[C@]3(O)C[C@H](OC(=O)[C@H](O)[C@@H](NC(=O)OC(C)(C)C)c4ccoc4)C(C)=C1C3(C)C)[C@]1(OC(C)=O)CO[C@@H]1C[C@@H]2O` (stereo partly drawn) [Compound 1838] here?
**A.** Its IC50 is less than 1 nM.

**Q.** For `CCOC(=O)O[C@H]1C(=O)[C@@]2(C)C([C@H](OC(=O)c3ccccc3)[C@]3(O)C[C@H](OC(=O)[C@H](O)[C@@H](NC(=O)OC(C)(C)C)c4ccsc4)C(C)=C1C3(C)C)[C@]1(OC(C)=O)CO[C@@H]1C[C@@H]2O` (stereo partly drawn) [Compound 1841], which IC50 is on record?
**A.** Its IC50 is less than 1 nM.

**Q.** `CCOC(=O)O[C@H]1C(=O)[C@@]2(C)C([C@H](OC(=O)c3ccccc3)[C@]3(O)C[C@H](OC(=O)[C@H](O)[C@@H](NC(=O)OC(C)(C)C)C4CCC4)C(C)=C1C3(C)C)[C@]1(OC(C)=O)CO[C@@H]1C[C@@H]2O` (stereo partly drawn) [Compound 1855] was tested. Which IC50 did it give?
**A.** Its IC50 is less than 10 nM.

**Q.** How did the IC50 turn out when `CCOC(=O)O[C@H]1C(=O)[C@@]2(C)C([C@H](OC(=O)c3ccccc3)[C@]3(O)C[C@H](OC(=O)[C@H](O)[C@@H](NC(=O)OC(C)(C)C)c4ccc([N+](=O)[O-])cc4)C(C)=C1C3(C)C)[C@]1(OC(C)=O)CO[C@@H]1C[C@@H]2O` (stereo partly drawn) [Compound 1866] was run?
**A.** Its IC50 is less than 1 nM.

same assay, conditions: HCT116 colony formation; 72 h drug incubation, colonies counted after 7 days; Example 5, C-7 ester/C-10 hydroxy taxanes; read-out: IN VITRO ID 50 (nm) HCT116

**Q.** Which IC50 does the source give for `CCC(=O)OC1CC2OCC2(OC(C)=O)C2C(OC(=O)c3ccccc3)C3(O)CC(OC(=O)C(O)C(NC(=O)OC(C)(C)C)c4ccco4)C(C)=C(C(O)C(=O)C12C)C3(C)C` (stereo not drawn) [Compound 1393, 3′-Desphenyl-3′-(2-furyl)-7-propionyl taxotere] here?
**A.** The IC50 was less than 1 nM.

**Q.** How did the IC50 turn out when `CCC(=O)O[C@H]1C[C@H]2OC[C@@]2(OC(C)=O)C2[C@H](OC(=O)c3ccccc3)[C@]3(O)C[C@H](OC(=O)[C@H](O)[C@@H](NC(=O)OC(C)(C)C)c4ccoc4)C(C)=C([C@@H](O)C(=O)[C@@]21C)C3(C)C` (stereo partly drawn) [Compound 1401] was run?
**A.** The IC50 was less than 1 nM.

**Q.** Which IC50 does the source give for `CCC(=O)O[C@H]1C[C@H]2OC[C@@]2(OC(C)=O)C2[C@H](OC(=O)c3ccccc3)[C@]3(O)C[C@H](OC(=O)[C@H](O)[C@@H](NC(=O)OC(C)(C)C)c4ccsc4)C(C)=C([C@@H](O)C(=O)[C@@]21C)C3(C)C` (stereo partly drawn) [Compound 1424] here?
**A.** The IC50 was less than 1 nM.

**Q.** With `CCC(=O)O[C@H]1C[C@H]2OC[C@@]2(OC(C)=O)C2[C@H](OC(=O)c3ccccc3)[C@]3(O)C[C@H](OC(=O)[C@H](O)[C@@H](NC(=O)OC(C)(C)C)C(C)C)C(C)=C([C@@H](O)C(=O)[C@@]21C)C3(C)C` (stereo partly drawn) [Compound 1434] as the compound, how does the IC50 read?
**A.** The IC50 was less than 10 nM.

**Q.** `CCC(=O)O[C@H]1C[C@H]2OC[C@@]2(OC(C)=O)C2[C@H](OC(=O)c3ccccc3)[C@]3(O)C[C@H](OC(=O)[C@H](O)[C@@H](NC(=O)OC(C)(C)C)C4CCC4)C(C)=C([C@@H](O)C(=O)[C@@]21C)C3(C)C` (stereo partly drawn) [Compound 1447] was tested. Which IC50 did it give?
**A.** The IC50 was less than 10 nM.

**Q.** For `CCC(=O)O[C@H]1C[C@H]2OC[C@@]2(OC(C)=O)C2[C@H](OC(=O)c3ccccc3)[C@]3(O)C[C@H](OC(=O)[C@H](O)[C@@H](NC(=O)OC(C)(C)C)c4ccccc4)C(C)=C([C@@H](O)C(=O)[C@@]21C)C3(C)C` (stereo partly drawn) [Compound 1458], which IC50 is on record?
**A.** Its IC50 is less than 10 nM.

same assay, conditions: HCT116 colony formation; 72 h drug incubation, colonies counted after 7 days; Example 10, C-10 ester/C-7 hydroxy taxanes; read-out: IN VITRO ID 50 (nm) HCT116

**Q.** `CC(=O)OC12COC1CC(O)C1(C)C(=O)C(OC(=O)c3cccs3)C3=C(C)C(OC(=O)C(O)C(C=C(C)C)NC(=O)OC(C)(C)C)CC(O)(C(OC(=O)c4ccccc4)C21)C3(C)C` (stereo not drawn) [Compound 1879] was tested. Which IC50 did it give?
**A.** The IC50 was less than 10 nM.

**Q.** With `CC(=O)OC12COC1CC(O)C1(C)C(=O)C(OC(=O)c3cccs3)C3=C(C)C(OC(=O)C(O)C(NC(=O)OC(C)(C)C)c4ccccn4)CC(O)(C(OC(=O)c4ccccc4)C21)C3(C)C` (stereo not drawn) [Compound 1883] as the compound, how does the IC50 read?
**A.** The IC50 was less than 10 nM.

**Q.** `CC(=O)OC12COC1CC(O)C1(C)C(=O)C(OC(=O)c3cccs3)C3=C(C)C(OC(=O)C(O)C(NC(=O)OC(C)(C)C)c4ccco4)CC(O)(C(OC(=O)c4ccccc4)C21)C3(C)C` (stereo not drawn) [Compound 1892] was tested. Which IC50 did it give?
**A.** Its IC50 is less than 1 nM.

**Q.** `CC(=O)OC12COC1CC(O)C1(C)C(=O)C(OC(=O)c3cccs3)C3=C(C)C(OC(=O)C(O)C(NC(=O)OC(C)(C)C)c4cccs4)CC(O)(C(OC(=O)c4ccccc4)C21)C3(C)C` (stereo not drawn) [Compound 1900] was tested. Which IC50 did it give?
**A.** The IC50 was less than 1 nM.

**Q.** How did the IC50 turn out when `CC(=O)OC12COC1CC(O)C1(C)C(=O)C(OC(=O)c3cccs3)C3=C(C)C(OC(=O)C(O)C(NC(=O)OC(C)(C)C)c4ccc([N+](=O)[O-])cc4)CC(O)(C(OC(=O)c4ccccc4)C21)C3(C)C` (stereo not drawn) [Compound 1911] was run?
**A.** Its IC50 is less than 10 nM.

**Q.** For `CC(=O)OC12COC1CC(O)C1(C)C(=O)C(OC(=O)c3cccs3)C3=C(C)C(OC(=O)C(O)C(NC(=O)OC(C)(C)C)c4ccoc4)CC(O)(C(OC(=O)c4ccccc4)C21)C3(C)C` (stereo not drawn) [Compound 1923], which IC50 is on record?
**A.** The IC50 was less than 1 nM.

**Q.** How did the IC50 turn out when `CC(=O)OC12COC1CC(O)C1(C)C(=O)C(OC(=O)c3cccs3)C3=C(C)C(OC(=O)C(O)C(NC(=O)OC(C)(C)C)c4ccsc4)CC(O)(C(OC(=O)c4ccccc4)C21)C3(C)C` (stereo not drawn) [Compound 1939] was run?
**A.** The IC50 was less than 1 nM.

**Q.** How did the IC50 turn out when `CC(=O)OC12COC1CC(O)C1(C)C(=O)C(OC(=O)c3cccs3)C3=C(C)C(OC(=O)C(O)C(NC(=O)OC(C)(C)C)c4cccnc4)CC(O)(C(OC(=O)c4ccccc4)C21)C3(C)C` (stereo not drawn) [Compound 1948] was run?
**A.** Its IC50 is less than 10 nM.
